“And” between values parts separate entries of the source, which are not always exact repeats. Identical values can stand only once. Like-named read-outs stand apart in the source and are kept apart here.
Legend:
[1] = target: T1, Electric eel acetylcholinesterase (AChE) (Electrophorus electricus, UniProt O42275); experiment: biochemical; details: for SI, selective index (BChE/AChE): calculated from IC50 of BChE/AChE; for IC50: electric eel AChE, mean ± SEM of triplicate experiments
T1 construct: purchased Sigma-Aldrich Co. (St. Louis, MO, USA)
Source text: (§1) Electric eel acetylcholinesterase (AChE, EC3.1.1.7), horse serum butyrylcholinesterase (BChE, EC 3.1.1.8), acetylthiocholine iodide (ACh), butyrylthioline chloride (BCh), 5,5′-dithobis [2-nitrobenzoic acid] […] The BACE1 FREF assay kit (β-secretase) was purchased from Pan Vera Co. (Madison, WI, USA). ONOO^− was purchased from Molecular Probes Cayman (Ann Arbor, MI, USA). All other chemicals and solvents used were purchased from E. Merck, Fluka, or Sigma- Aldrich, unless otherwise stated.
The inhibitory activity of the isolated coumarins toward ChE was measured using the spectrophotometric method developed by Ellman et al.. ACh and BCh were used as substrates to assay the inhibition of AChE and BChE, respectively. Each reaction mixture consisted of 140 µL sodium phosphate buffer (pH 8.0), 20 µL of test sample solution, and 20 µL of either AChE or BChE solution, which were then combined and incubated for 15 min at room temperature. […] Reactions were initiated upon addition of 10 µL of DTNB and 10 µL of either ACh or BCh. Enzymatic hydrolysis, mediated by AChE or BChE, was monitored according to the formation of yellow 5-thio-2-nitrobenzoate anions at 412 nm for 15 min, which were generated by the reaction of DTNB with thiocholine released from ACh or BCh. All reactions were performed in 96-well plates in triplicate, and recorded using a microplate spectrophotometer (Molecular Devices, Sunnyvale, CA, USA).

human recombinant BACE1 [2] = target: T2, human recombinant BACE1 (Homo sapiens, UniProt P56817); experiment: Kinetics of BACE1 inhibition (Lineweaver–Burk and Dixon plots); type: biochemical; details: for BACE1 inhibition type: determined using Dixon and Lineweaver–Burk plots; for Ki: determined using a Dixon plot, substrate 750, 375, 250 nM, read-out: BACE1 inhibition constant (Ki)
T2 construct: purchased PanVera Co. (Madison, WI, USA)
Description: Complementary kinetic methods were employed: Lineweaver–Burk and Dixon plots. The mechanism of BACE1 inhibition was evaluated by monitoring the effects of different concentrations of substrate (750, 375, and 250 nM). The test concentrations of 2 in BACE1 inhibition kinetic experiments were 0, 0.4, 2.0, and 10 µM, while those for 3 were 0, 25, 50, and 100 µM. Inhibition constants (Ki) were determined by interpreting the Dixon plot, where the value on the x-axis represents Ki.

human recombinant BACE1 [3] = target: T2, human recombinant BACE1; experiment: In vitro BACE1 FRET enzyme assay; type: biochemical
Description: A BACE1 fluorescence resonance energy transfer (FRET) assay kit (β-secretase, human recombinant) was purchased from PanVera Co. (Madison, WI, USA). The assay was carried out according to the provided manual with slight modifications, as described in a previous study.

[4] = target: T3, horse serum butyrylcholinesterase (BChE) (Equus caballus, UniProt P81908); experiment: In vitro ChE enzyme assay (Ellman), BChE; type: biochemical; details: mean ± SEM of triplicate experiments
T3 construct: horse serum butyrylcholinesterase (BChE, EC 3.1.1.8); purchased Sigma-Aldrich Co. (St. Louis, MO, USA); host or cells: horse serum
Source text: as §1
The inhibitory activity of the isolated coumarins toward ChE was measured using the spectrophotometric method developed by Ellman et al.. ACh and BCh were used as substrates to assay the inhibition of AChE and BChE, respectively. Each reaction mixture consisted of 140 µL sodium phosphate buffer (pH 8.0), 20 µL of test sample solution, and 20 µL of either AChE or BChE solution, which were then combined and incubated for 15 min at room temperature. […] Enzymatic hydrolysis, mediated by AChE or BChE, was monitored according to the formation of yellow 5-thio-2-nitrobenzoate anions at 412 nm for 15 min, which were generated by the reaction of DTNB with thiocholine released from ACh or BCh. All reactions were performed in 96-well plates in triplicate, and recorded using a microplate spectrophotometer (Molecular Devices, Sunnyvale, CA, USA).

[5] = tested on: ONOO−-mediated tyrosine nitration of BSA; experiment: Inhibition of ONOO−-mediated protein tyrosine nitration (Western blot, 3-nitrotyrosine antibody); type: biochemical; details: pretreatment at 12.5–100 μM
Description: To determine the inhibitory effect of 2 against ONOO^−-induced tyrosine nitration, Western blot analysis was performed using a 3-nitrotyrosine antibody.
Figure 5 Effect of 2 on nitration of BSA by ONOO^−. A mixture of the compound and BSA was incubated at 25 °C for 10 min. After incubation of ONOO^− at 25 °C for 10 min, reactants were resolved by electrophoresis in a 10% SDS-polyacrylamide gel.
We evaluated ONOO^−-mediated protein tyrosine nitration using the method of Ali et al., with slight modifications. The tested concentration range of 2 was 12.5–100 µM.

[6] = human recombinant BACE1, mean ± SEM of triplicate experiments, read-out: IC50 BACE1

T2 sequence (P56817 46-501): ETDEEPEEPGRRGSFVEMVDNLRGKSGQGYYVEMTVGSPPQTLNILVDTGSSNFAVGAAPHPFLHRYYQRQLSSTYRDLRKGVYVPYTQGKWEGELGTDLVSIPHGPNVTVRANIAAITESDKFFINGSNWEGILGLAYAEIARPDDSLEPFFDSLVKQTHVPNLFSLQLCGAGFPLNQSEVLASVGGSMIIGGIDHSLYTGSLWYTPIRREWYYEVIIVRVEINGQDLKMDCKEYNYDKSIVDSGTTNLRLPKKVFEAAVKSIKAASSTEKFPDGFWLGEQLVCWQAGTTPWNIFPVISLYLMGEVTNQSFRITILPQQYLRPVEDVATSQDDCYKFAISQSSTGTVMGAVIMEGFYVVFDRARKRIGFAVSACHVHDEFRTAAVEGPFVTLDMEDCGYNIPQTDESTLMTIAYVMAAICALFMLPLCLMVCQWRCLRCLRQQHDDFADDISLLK
T3 sequence (P81908 whole entry): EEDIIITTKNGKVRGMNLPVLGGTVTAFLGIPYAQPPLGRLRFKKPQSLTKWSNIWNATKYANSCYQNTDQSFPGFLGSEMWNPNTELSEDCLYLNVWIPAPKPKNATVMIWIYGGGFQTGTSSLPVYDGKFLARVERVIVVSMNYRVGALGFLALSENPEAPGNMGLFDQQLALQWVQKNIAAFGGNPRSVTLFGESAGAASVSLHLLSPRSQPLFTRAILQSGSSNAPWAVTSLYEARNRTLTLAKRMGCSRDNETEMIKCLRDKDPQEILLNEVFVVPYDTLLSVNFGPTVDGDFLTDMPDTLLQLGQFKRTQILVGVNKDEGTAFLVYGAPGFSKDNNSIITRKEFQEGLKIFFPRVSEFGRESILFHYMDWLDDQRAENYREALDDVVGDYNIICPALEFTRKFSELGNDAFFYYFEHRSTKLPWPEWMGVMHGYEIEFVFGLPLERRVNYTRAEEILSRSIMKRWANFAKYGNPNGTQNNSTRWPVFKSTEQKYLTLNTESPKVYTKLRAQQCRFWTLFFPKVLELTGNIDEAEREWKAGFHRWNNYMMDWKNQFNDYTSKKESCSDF
T1 sequence (O42275 24-633): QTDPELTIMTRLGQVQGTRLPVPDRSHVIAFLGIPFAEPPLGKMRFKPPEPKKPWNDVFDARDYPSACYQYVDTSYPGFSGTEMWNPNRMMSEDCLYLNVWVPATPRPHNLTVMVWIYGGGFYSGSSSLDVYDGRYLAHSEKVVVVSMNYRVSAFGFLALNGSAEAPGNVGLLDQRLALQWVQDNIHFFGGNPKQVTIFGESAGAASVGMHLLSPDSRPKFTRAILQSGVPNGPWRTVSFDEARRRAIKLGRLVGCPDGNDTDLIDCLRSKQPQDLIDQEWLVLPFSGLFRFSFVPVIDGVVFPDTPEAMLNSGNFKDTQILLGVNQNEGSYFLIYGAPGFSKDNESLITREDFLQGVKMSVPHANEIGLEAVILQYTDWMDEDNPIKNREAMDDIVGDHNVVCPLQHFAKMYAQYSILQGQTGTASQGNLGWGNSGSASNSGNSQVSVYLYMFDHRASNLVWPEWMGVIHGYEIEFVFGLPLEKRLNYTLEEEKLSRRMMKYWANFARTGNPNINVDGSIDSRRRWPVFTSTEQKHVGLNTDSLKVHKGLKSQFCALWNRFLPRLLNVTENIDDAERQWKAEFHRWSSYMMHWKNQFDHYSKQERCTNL

O=Cc1c(O)ccc2ccc(=O)oc12 [Compound 3, 8-formyl umbelliferone]
SI, selective index (BChE/AChE) [1]: 4.58
IC50 ([1]; read-out: IC50 AChE): 16.7 to 19.1 µM and 19.1 µM
BACE1 inhibition type (human recombinant BACE1 [2]): noncompetitive-type inhibition
Ki (human recombinant BACE1 [2]): 22.2 µM
IC50 (human recombinant BACE1 [3]; [6]): 39.82 ± 0.31 µM
IC50 [4]: 27.9 to 87.7 µM and 87.7 µM

O=Cc1cc2ccc(=O)oc2cc1O [Compound 2, 6-formyl umbelliferone]
SI, selective index (BChE/AChE) [1]: 1.67
IC50 ([1]; read-out: IC50 AChE): 16.7 to 19.1 µM and 16.7 µM
BACE1 inhibition type (human recombinant BACE1 [2]): noncompetitive-type inhibition
Ki (human recombinant BACE1 [2]): 2.27 µM
Inhibition of ONOO−-mediated tyrosine nitration [5]: significant dose-dependent inhibition
IC50 (human recombinant BACE1 [3]; [6]): 1.31 ± 0.01 µM
IC50 [4]: 27.9 to 87.7 µM and 27.9 µM

COc1ccc2cc3[n+](cc2c1OC)CCc1cc2c(cc1-3)OCO2 [Berberine, berberine, reference compound]
IC50 ([1]; IC50 AChE): < 0.32 µM

O=c1ccc2ccc(O)cc2o1 [Compound 1, umbelliferone]
IC50 (human recombinant BACE1 [3]): 169 ± 2.17 µM

From publication PMC6151429 (Molecules : A Journal of Synthetic Chemistry and Natural …, 2017)
